Data set [1] has as its target T1, D3 receptor (Homo sapiens, UniProt P35462).
T1 construct: expressed in transfected cells; host or cells: CHO-D3R (or HEK-D3R) cells
In words: ERK1/2 MAPK activation assay (phosphorylation immunoblot), D3 receptor. In kind it is cell-based. As to conditions: 1 μM, 2 min, CHO-D3R (or HEK-D3R) cells. The protocol:
(§1) Selected compounds of the disclosure, as well as dopamine (DA) and PD128907 [a commercially available dopamine D2/D3 agonist; (4aR,10bR)-3,4a,4,10b-tetrahydro-4-propyl-2H,5H-[1]benzopyrano-[4,3-b]-1,4-oxazin-9-ol], were tested in an established ERK1/2 MAPK activation assay for dopamine D2 or D3 agonist activity. The results of these side-by-side tests, comprising immunoblot analysis of phosphorylated ERKT/2 MAPK, are illustrated in FIGS. 9-10.
(§2) Functional screening was conducted with vehicle or test compounds using ERK1/2 phosphorylation as endpoint as described herein. 0.4×10^6 CHO-D3R (or HEK-D3R) and CHO-D2R (or HEK-D2R) cells were seeded in 6-well plates and cultured in 3 ml DMEM complete growth medium for 48 h. […]
(§3) Cell lysates were assayed or protein content with DC Protein Assay Kit II (Bio-Rad). […] Total p44/42 MAPK levels in the same blots were also determined with rabbit anti-p44/42 MAPK monoclonal or polyclonal antibody (1:5000, Cell Signaling Technology) after stripping the blots of the same PVDF membrance. Chemiluminescence detection was performed using the SuperSignal West Dura Extended Duration Substrate detection kit (Thermo Scientific, Rockford, IL) and phosphorylated or total ERK1/2 MAPK immunoblots were quantified by densitometry with ImageQuant LAS4000 (GE Healthcare Bio-Sciences, Pittsburgh, PA). […]
Background: Immunoblotting shows a protein as a band on a membrane.

For data set [2], the target named is T2, D2 receptor (Homo sapiens, UniProt P14416).
T2 construct: expressed in transfected cells; host or cells: CHO-D2R (or HEK-D2R) cells
T2 sequence (P14416 whole entry): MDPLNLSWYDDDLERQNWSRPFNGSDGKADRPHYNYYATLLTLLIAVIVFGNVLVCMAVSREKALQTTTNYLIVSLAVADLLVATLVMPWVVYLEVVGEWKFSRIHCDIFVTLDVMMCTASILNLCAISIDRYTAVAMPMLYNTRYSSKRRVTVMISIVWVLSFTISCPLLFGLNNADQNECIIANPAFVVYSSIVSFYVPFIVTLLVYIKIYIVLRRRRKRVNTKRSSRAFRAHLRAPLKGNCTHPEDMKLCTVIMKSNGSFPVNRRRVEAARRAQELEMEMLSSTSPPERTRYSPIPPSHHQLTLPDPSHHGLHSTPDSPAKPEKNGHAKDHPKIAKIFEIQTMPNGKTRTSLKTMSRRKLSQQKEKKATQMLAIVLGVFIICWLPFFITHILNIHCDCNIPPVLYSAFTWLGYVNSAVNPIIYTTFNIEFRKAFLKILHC
In words: ERK1/2 MAPK activation assay (phosphorylation immunoblot), D2 receptor. In kind it is cell-based. Conditions: 1 μM, 2 min, CHO-D2R (or HEK-D2R) cells. The protocol: as §1, §2, §3

The test system of data set [3] is pDAT. In words: Time course densitometry of pDAT levels in SH-SY5Y-D3R cells. Type of data set: cell-based. Conditions: PRX 5 nM, SK608 1 μM, SK609 1 μM; for pDAT levels, combined with / post cocaine (CC): FIG. 5B, cocaine 1 μM. The procedure:
FIGS. 5A-5B illustrate that SK609 and its analogues reduce pDAT levels when pretreated with cocaine in a time dependent manner. Time course densitometry analysis of the effects of cocaine (1 μM), PRX (5 nM), SK608 (1 μM), and SK609 (1 μM) on pDAT levels in SH-SY5Y-D3R cells. Different groups of cells were pre-treated with (FIG. 5A) CC, PRX, SK609 and SK608 or (FIG. 5B) CC, CC/PRX, CC/SK609 and CC/SK608 and were collected at the time points indicated. pDAT levels were measured and GAPDH was used as loading control. Data are presented as mean±sd from three independent experiments performed in triplicate.

The nature of data set [4]: Self-administration of PRX or SK609 on fixed ratio 1 schedule before and after cocaine (FIG. 7). The procedure:
FIG. 7A: Rats were implanted with jugular catheters and then allowed to self-administer either pramipexole (PRX; 0.25 mg/kg) or SK609 (609; 4 mg/kg) on a 6-hr, fixed ratio 1 schedule of reinforcement (Pre-Cocaine; left gray shading). After 10 days of PRX or SK609 access, rats were switched to cocaine (0.75 mg/kg). Once rats acquired cocaine self-administration behavior (defined as 20 injections of cocaine within a single 6-session) they were allowed another two days of cocaine access (Cocaine; blue shading). Only the last 3 days of cocaine self-administration are plotted. After cocaine self-administration, rats were switched back to PRX and SK609 to assess if these compounds would now maintain reinforced responding (Post-Cocaine; right gray shading). […] Data are mean±s.e.m. Student's t-test. *p<0.05.
After 10 days of PRX or SK609 access, rats were switched to cocaine (0.75 mg/kg). Once rats acquired cocaine self-administration behavior (defined as 20 injections of cocaine within a single 6-session) they were allowed another two days of cocaine access (Cocaine; blue shading). Only the last 3 days of cocaine self-administration are plotted. After cocaine self-administration, rats were switched back to PRX and SK609 to assess if these compounds would now maintain reinforced responding (Post-Cocaine; right gray shading).
Data are mean±s.e.m. Student's t-test. *p<0.05.

Data set [5] deals with dopamine transporter (DAT). In words: Fast scan cyclic voltammetry of dopamine release and uptake in nucleus accumbens core tissue after i.p. dosing. Type of data set: in vivo, rats. As to conditions: for dopamine release at baseline: FIG. 8B; for dopamine release at baseline / dopamine uptake at baseline: naive rats, i.p. 30 min prior to sacrifice, PRX 0.25 mg/kg, SK608 4 mg/kg, SK609 4 mg/kg, vs saline; for dopamine uptake at baseline: FIG. 8C; for dopamine release after bath-applied cocaine: FIG. 8D; for dopamine release after bath-applied cocaine / inhibition of dopamine uptake by cocaine: same dosing, cocaine bath applied to tissue; for inhibition of dopamine uptake by cocaine: FIG. 8E. The procedure:
(§4) (FIG. 3A) DA release, (FIG. 3B) DA uptake (Vmax), and (FIG. 3C) DAT sensitivity to cocaine (inhibition of DA uptake; app Km) following vehicle (Veh) or 4 mg/kg SK609.
Naive rats were injected intraperitoneally with saline (SAL), pramipexole (PRX; 0.25 mg/kg), SK608 (608; 4 mg/kg), or SK609 (609; 4 mg/kg) 30 min prior to sacrifice. […] (FIG. 8A) Example dopamine traces, (FIG. 8B) dopamine release and (FIG. 8C) dopamine uptake at baseline, (FIG. 8D) dopamine release and (FIG. 8E) inhibition of dopamine uptake. Data are mean±s.e.m.
as §4
Naive rats were injected intraperitoneally with saline (SAL), pramipexole (PRX; 0.25 mg/kg), SK608 (608; 4 mg/kg), or SK609 (609; 4 mg/kg) 30 min prior to sacrifice. […] (FIG. 8A) Example dopamine traces, (FIG. 8B) dopamine release and (FIG. 8C) dopamine uptake at baseline, (FIG. 8D) dopamine release and (FIG. 8E) inhibition of dopamine uptake. Data are mean s.e.m.

For data set [6] the following is noted: in vivo; cited from earlier work.
Data set [7] can be described thus: SK609 self-administration in rats (FIG. 1). Conditions: rats given access to 4 mg/kg SK609; comparison 0.75 mg/kg cocaine. In kind it is in vivo. The procedure: Shown are injections taken for rats given access to 4 mg/kg SK609 and 0.75 mg/kg cocaine. Dashed line represents acquisition criteria which required 4 consecutive days of 10 injections per session. Cocaine data are aligned to the first day in which rats met acquisition criteria. Data represent mean±s.e.m. *p<0.05, ***p<0.001.
Shown in FIG. 1 are injections taken for rats given access to 4 mg/kg SK609 and 0.75 mg/kg cocaine. Dashed line represents acquisition criteria which required 4 consecutive days of 10 injections per session. Cocaine data are aligned to the first day in which rats met acquisition criteria. Data represent mean s.e.m. *p<0.05, ***p<0.001.

Data set [8] can be described thus: Cocaine self-administration on Progressive Ratio (PR) schedule, motivation for cocaine. In kind it is in vivo, rodent. Conditions: i.p. 2 mg/kg or 4 mg/kg SK609. The procedure: FIGS. 2A-2B illustrate that SK609 reduces motivation for cocaine in a rodent self-administration model. […] (FIG. 2A) Breakpoints and (FIG. 2B) lever presses following i.p. vehicle, 2 mg/kg or 4 mg/kg SK609. Data are expressed as the mean±s.e.m., percent of baseline responding. *P<0.05.
(FIG. 2A) Breakpoints and (FIG. 2B) lever presses following i.p. vehicle, 2 mg/kg or 4 mg/kg SK609. Data are expressed as the mean±s.e.m., percent of baseline responding. *P<0.05.

For data set [9], the system named is pDAT. In words: Western blot / densitometry of pDAT in striatal synaptosomes of cocaine-treated rats. Type of data set: in vivo. Conditions: cocaine 15 mg/kg pre-treatment, SK609 4 mg/kg. The procedure:
(FIG. 4A) Representative western blots for pDAT, tDAT, D3R, βarr2 and GAPDH on striatal synaptosomes derived from rats treated with either saline (sal) or cocaine (CC) (15 mg/kg) or SK609 (4 mg/kg) or Pramipexole (PRX; (S)-N^6-propyl-4,5,6,7-tetrahydro-1,3-benzothiazole-2,6-diamine) (0.25 mg/kg) with and without cocaine pre-treatment. […] (FIG. 4B) Densitometry analysis of pDAT expression. Data are presented as mean s.e.m. from 3 independent experiments from n=3 rats/group. *p<0.05, **p<0.001.
(FIG. 4A) Representative western blots for pDAT, tDAT, D3βarr2 and GAPDH on striatal synaptosomes derived from rats treated with either saline (sal) or cocaine (CC) (15 mg/kg) or SK609 (4 mg/kg) or Pramipexole (PRX) (0.25 mg/kg) with and without cocaine pre-treatment. (FIG. 4B) Densitometry analysis of pDAT expression. Data are presented as mean±s.e.m. from 3 independent experiments from n=3 rats/group. *p<0.05, **p<0.001.

SMILES strings stand for the structures.

T1 sequence (P35462 whole entry): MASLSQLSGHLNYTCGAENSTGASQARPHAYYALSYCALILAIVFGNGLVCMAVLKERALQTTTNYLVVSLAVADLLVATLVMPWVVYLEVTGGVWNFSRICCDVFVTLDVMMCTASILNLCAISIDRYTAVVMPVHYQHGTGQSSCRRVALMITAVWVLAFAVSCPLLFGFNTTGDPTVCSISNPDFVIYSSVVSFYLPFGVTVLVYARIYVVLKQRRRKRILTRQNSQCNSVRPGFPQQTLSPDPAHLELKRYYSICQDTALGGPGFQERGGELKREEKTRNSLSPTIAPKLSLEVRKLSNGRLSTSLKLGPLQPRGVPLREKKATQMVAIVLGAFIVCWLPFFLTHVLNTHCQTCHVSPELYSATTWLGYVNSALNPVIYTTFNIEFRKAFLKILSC

In the case of `CCCN1CCO[C@@H]2c3cc(O)ccc3OC[C@H]21` [PD128609, (4aR,10bR)-3,4a,4,10b-tetrahydro-4-propyl-2H,5H-[1]benzopyrano-[4,3-b]-1,4-oxazin-9-ol], in data set [1], the “ERK1/2 phosphorylation induced by activation of D3 receptor” value is “activated both D2 and D3 receptors”. Further, in data set [2], the “ERK1/2 phosphorylation induced by activation of D2 receptor” value was “activated both D2 and D3 receptors”.
As for `CCCN[C@H]1CCc2nc(N)sc2C1` [PRX, (S)-N^6-propyl-4,5,6,7-tetrahydro-1,3-benzothiazole-2,6-diamine, reference compound], the “pDAT levels, compound on its own” value in data set [3] (FIG. 5A) was “significant increase in pDAT levels”. The “pDAT levels, combined with / post cocaine (CC)” value in data set [3] is “significant increase in pDAT levels”. Also, the “overall intake, post-cocaine” value in data set [4] (rat, in vivo) is listed as “sustained higher overall PRX intake compared to SK609”. For the same compound, in data set [4] (rat, in vivo, 10 days), the “cumulative intake, pre-cocaine” value is reported as “higher cumulative intake of PRX compared to SK609”. Moreover, in data set [5], the “dopamine release at baseline” value is recorded as “no effect on DA release or uptake”, the “dopamine uptake at baseline” value is reported as “no effect on DA release or uptake”, the “dopamine release after bath-applied cocaine” value was “had no effect” and the “inhibition of dopamine uptake by cocaine” value was “had no effect”. Moreover, the “compulsive drug seeking behavior” value in data set [6] is given as “producing compulsive drug seeking behavior”.
`CC(N)CCc1ccc(Cl)cc1` (stereo not drawn) [SK608, 4-(4-chlorophenyl)-butan-2-amine]: the “pDAT levels, combined with / post cocaine (CC)” value in data set [3] was “significantly reduced pDAT levels”. Besides, in data set [5], the “dopamine release at baseline” value is “reduce DA release and uptake”; the “dopamine uptake at baseline” value was “reduce DA release and uptake”; the “dopamine release after bath-applied cocaine” value was “significantly reduced DA release and uptake inhibition by cocaine”; the “inhibition of dopamine uptake by cocaine” value is “significantly reduced DA release and uptake inhibition by cocaine”.
With `CC(N)CCc1ccccc1Cl` (stereo not drawn) [SK609, 4-(2-chlorophenyl)-butan-2-amine], the “self-administration (injections taken)” value in data set [7] is listed as “does not support self-administration”. Further, the “pDAT levels, combined with / post cocaine (CC)” value in data set [3] was “significantly reduced pDAT levels”. Besides, in data set [8], the “motivation for cocaine (breakpoints, lever presses)” value is “reduced motivation for cocaine”. In addition, in data set [9], the “pDAT expression in striatal synaptosomes” value is reported as “reduces expression of pDAT”. Besides, in [4] (FIG. 7A, 6-hr fixed ratio 1, PRX 0.25 mg/kg, SK609 4 mg/kg), the “acquisition of self-administration of the compound (reinforcing effect)” value is “not robust reinforcers”. In [5] (FIG. 3A, 4 mg/kg SK609 vs vehicle), the DA release result is “disrupts dopamine (DA) release and uptake”. Moreover, the “DA uptake (Vmax)” value in data set [5] (FIG. 3B, 4 mg/kg SK609 vs vehicle) is “disrupts dopamine (DA) release and uptake”. For the same compound, in [5], the “dopamine release at baseline” value was “reduce DA release and uptake”; the “dopamine uptake at baseline” value is “reduce DA release and uptake”; the “dopamine release after bath-applied cocaine” value is “significantly reduced DA release and uptake inhibition by cocaine”; the “inhibition of dopamine uptake by cocaine” value was “significantly reduced DA release and uptake inhibition by cocaine”.
